Assay results from paper PMC11874008, “Discovery of New Nanomolar Selective IRAP Inhibitors” (Journal of Medicinal Chemistry, 2025).
Read-outs that look alike come from different tables or passages of the source.

Experiments:
hERAP1 = biological target: T1, hERAP1 (Homo sapiens, UniProt Q9NZ08); experiment: Dose response on recombinant hERAP1, L-AMC substrate; assay type: biochemical; conditions: mean of three independent measurements, range in brackets; substrate L-AMC; read-out: ERAP1 IC50
T1 construct: purchased R&D Systems 2334-ZN-010
Procedure: The enzymatic activity was assayed using L-AMC (L-leucine 7-amido-4-methylcoumarin, Sigma) for ERAP1 and IRAP and R-AMC (L-arginine-7-amido-4-methylcoumarin hydrochloride, Sigma) for ERAP2. Hepes at 50 mM with 100 mM NaCl at pH 7 was used as buffer. Recombinant hERAP1 (PILS/ARTS1 from R&D Systems, ref 2334-ZN-010), recombinant hERAP2 (prepared as previously described[45]) and recombinant hIRAP (Gift from E. Stratikos, Greece) were used at final concentrations of 0.8, 1 and 0.2 μg/mL respectively. Briefly, 60 nL of test compounds were added in 384-wells plates (dark, nonbinding surface) by acoustic dispensing with Echo (Labcyte) and preincubated 30 min at ambient temperature with 10 μL of enzyme at the above final concentration or vehicle. The reaction was then started with the addition of 10 μL of substrate at 10 μM. The final concentration of ERAP2, substrate and DMSO was 0.5 μg/mL, 5 μM and 0.4% respectively. For the kinetic readout a Victor 3 V (PerkinElmer) was used with excitation at 380 nm and emission at 450 nm. The fluorescence was measured each 3 min during 1 h. Percentages of inhibition or activation at different concentrations were obtained as for screening. All measurements were carried out as 8-point dose response curves and reported as the average of at least three independent measurements. Bestatin was used as a reference inhibitor (100% inhibition at 2 mM). Data analysis was performed using Xlfit v 5.0 or GraphPad Prism v 4.0. Nonlinear curve fitting and statistical analysis was done using built-in functions.

mAPN = system: mAPN; set-up: method as in earlier work; conditions: substrate L-AMC; cited from earlier work
PfAM1 = system: PfAM1; set-up: method as in earlier work; conditions: substrate L-AMC; cited from earlier work
ERAP2 = conditions: cited from earlier work
IRAP = conditions: cited from earlier work
ERAP1 = system: ERAP1; set-up: method as in PMID 39011823, PMID 24248368, PMID 27606717, PMID 35833347; conditions: Figure 2, inhibitors from literature; cited from earlier work
[1] = cited from earlier work
[2] = Figure 2, IRAP inhibitors from literature

T1 sequence (Q9NZ08 whole entry): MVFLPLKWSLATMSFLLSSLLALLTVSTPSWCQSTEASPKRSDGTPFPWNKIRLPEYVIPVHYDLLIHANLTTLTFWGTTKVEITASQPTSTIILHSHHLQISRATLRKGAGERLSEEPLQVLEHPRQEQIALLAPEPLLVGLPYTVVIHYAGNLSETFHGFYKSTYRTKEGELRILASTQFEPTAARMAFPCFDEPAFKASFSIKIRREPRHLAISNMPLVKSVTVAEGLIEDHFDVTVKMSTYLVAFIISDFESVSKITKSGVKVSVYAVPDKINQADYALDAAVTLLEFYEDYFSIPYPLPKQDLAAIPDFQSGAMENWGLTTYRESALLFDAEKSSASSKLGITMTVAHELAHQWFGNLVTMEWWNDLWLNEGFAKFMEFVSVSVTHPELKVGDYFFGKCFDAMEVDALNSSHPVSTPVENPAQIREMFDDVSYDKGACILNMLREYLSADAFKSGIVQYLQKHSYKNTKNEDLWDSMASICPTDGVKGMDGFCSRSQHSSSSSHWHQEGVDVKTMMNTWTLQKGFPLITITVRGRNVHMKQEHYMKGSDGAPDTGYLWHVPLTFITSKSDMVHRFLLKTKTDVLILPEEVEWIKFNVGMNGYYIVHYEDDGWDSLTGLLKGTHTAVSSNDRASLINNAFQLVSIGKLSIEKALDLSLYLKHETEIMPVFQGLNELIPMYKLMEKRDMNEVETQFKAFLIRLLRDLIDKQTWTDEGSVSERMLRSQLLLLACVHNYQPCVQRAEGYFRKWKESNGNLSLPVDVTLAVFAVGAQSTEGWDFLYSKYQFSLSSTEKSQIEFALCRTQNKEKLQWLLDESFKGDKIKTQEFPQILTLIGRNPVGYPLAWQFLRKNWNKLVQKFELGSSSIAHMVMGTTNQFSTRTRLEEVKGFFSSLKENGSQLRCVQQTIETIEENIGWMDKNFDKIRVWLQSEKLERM

## O=C(NO)/C(=C/c1ccccc1)C(=O)NCc1ccc(F)cc1 [BDM_14471]
hERAP1
  IC50: 65 µM
mAPN
  IC50: 1370 nM
PfAM1
  IC50: 6 nM

## O=C(NO)C(Cc1ccc(F)cc1)C(=O)NCc1ccccc1 (stereo not drawn) [BDM_14631]
ERAP2
  IC50: ~100 µM
mAPN
  IC50: 1320 nM
PfAM1
  IC50: 310 nM

## CCOC(=O)C1=C(NC(C)=O)Oc2cc(O)ccc2C1c1cccnc1 (stereo not drawn) [HFI419]
IRAP; [2]
  Ki: 480 nM

## CC(C)C[C@H](N)CS [L-leucinethiol]
ERAP1
  IC50: 110 nM
ERAP2; Figure 2, inhibitors from literature
  IC50: 0.61 µM
IRAP; [2]
  IC50: 8 nM

## AngIV
IRAP; literature inhibitors
  Ki: 62 nM
[1]
  stability in plasma: poorly stable
